From patent publication US20110033946A1, “DETECTION OF SHORT-CHAIN FATTY ACIDS IN BIOLOGICAL SAMPLES” (HEMAQUEST PHARMACEUTICALS, INC., priority 2009, published 2011)
Several values for one entry are separate records, joined by “and”; a condition that tells them apart may be missing. Equal entries are not always repeated. Where two headings read alike, the source gives them in different places.

Key:
[1] = Freeze/thaw cycle stability in human plasma; type: physicochemical; details: three freeze/thaw cycles at approximately −70° C.
Procedure: (§1) The following samples were also analyzed either in conjunction with one of the precision and accuracy runs or in one of the additional validation runs. Samples from six lots of control human plasma for specificity. Samples from six lots of control human plasma fortified with internal standard for specificity. Two concentration levels of unextracted QC-samples in triplicate (solvent standards) were analyzed for the evaluation of the recovery of sodium 2,2-dimethylbutyrate and DMV in human plasma. Two levels of QC samples (Low QC and High QC in triplicate) were subjected to three freeze/thaw cycles at approximately −70° C. prior to extraction to evaluate freeze/thaw stability. Two levels of QC samples (Low QC and High QC in triplicate) were placed on the bench top for approximately 17 hours prior to extraction for the evaluation of the bench top stability. Triplicate low QC samples and triplicate high QC samples were stored for one month and three months in a freezer at approximately −70° C., and then extracted and analyzed to evaluate long term stability in human plasma. Two levels of extracted QC samples (Low QC and High QC) were re-analyzed after approximately 71 hours in the autosampler at room temperature to evaluate the extract autosampler stability. Two levels of extracted QC samples (Low QC and High QC) were re-analyzed after approximately 8 hours in the freezer at approximately −20° C. to evaluate the extract freeze stability. Three aliquots of a dilution QC sample diluted 10-fold. Triplicate dilutions of the old stock solution (stored at approximately 4° C.) and new stock solutions prepared at intervals of two weeks and one month. Statistical calculations in the report tables were calculated from unrounded concentration values taken directly from the raw data. The concentration values were rounded for display purposes.
The stability of sodium 2,2-dimethylbutyrate in human plasma was evaluated at approximately −70° C. for three cycles using QC-Low and QC-High samples in triplicate. The freeze time was at least 12 to 24 hours, with a minimum thaw time of one hour. The CV % values for the QC-Low and QC-High stability samples are 3.3% and 9.8%, respectively. To calculate the RE %, the measured mean concentration was compared to the nominal concentration. The RE % values for the QC-Low and QC-High stability samples are 2.3% and −5.5%, respectively.

[2] = type: physicochemical, human; details: for Bench top stability, Mean concentration / Bench top stability, RE % (mean vs nominal): human, 22.5 h
Procedure: as §1, with “Two levels of QC samples (Low QC and High QC in triplicate) were placed on the bench top for approximately 17 hours prior to extraction for the evaluation of the bench top stability.” left out
Triplicate QC-Low and QC-High samples were extracted and analyzed after these storage conditions. The CV % values for the QC-Low and QC-High stability samples are 7.8% and 2.9%, respectively. To calculate the RE %, the measured mean concentration was compared to the nominal concentration. The RE % values for the QC-Low and QC-High stability samples are 11.8% and −3.4%, respectively.

[3] = Stock solution stability at approximately 4° C. (old vs new stock peak areas); type: physicochemical; details: for Stock solution stability, RE % (to New) of old stock peak area: approximately 4° C.
Procedure: as §1, with “The following LC-MS/MS conditions were applied for the analysis of underivatized sodium 2,2-dimethylbutyrate and DMV for stock solution stability analysis (2 to 3.5 month), and system suitability associated with these analyses: The following” for “The following”, “display purposes. Fresh stock solutions of sodium 2,2-dimethylbutyrate were prepared at intervals of two weeks and 1, 2, 3 and 3.5 months after the initial standard preparation. Similarly, the stability intervals for DMV were two weeks and 1, 2 and 3 months. The initial (or old) stock solutions and the fresh stock solutions were diluted into the calibration standard range and analyzed. The peak areas for the fresh (new) and old standard solutions were compared. Beginning with the 2-month stability analysis, sodium 2,2-dimethylbutyrate and DMV stock solutions were analyzed underivatized. This was done since the peak areas of both sodium 2,2-dimethylbutyrate and DMV varied among replicate derivatized preparations. Analyzing the standard solutions underivatized was a simpler procedure which gave more accurate and precise results” for “display purposes.”

Stability after freeze/thaw cycles [1]: stable
Freeze/thaw cycle stability, Mean concentration ([1]; QC-High, nominal 40.0 μg/mL): 37.8 µg/mL
Freeze/thaw cycle stability, RE % (mean vs nominal) ([1]; QC-High, nominal 40.0 μg/mL): −5.5%
Freeze/thaw cycle stability, concentration found (replicate) ([1]; QC-High, nominal 40.0 μg/mL): 41.9 µg/mL and 36.8 µg/mL and 34.7 µg/mL
Freeze/thaw cycle stability, Mean concentration ([1]; QC-Low, nominal 0.60 μg/mL): 0.614 µg/mL
Freeze/thaw cycle stability, RE % (mean vs nominal) ([1]; QC-Low, nominal 0.60 μg/mL): 2.3%
Time stable on bench top ([2]; human plasma, ambient bench top storage): 22.5 h
Bench top stability, Mean concentration ([2]; 0.6 μg/mL): 0.671 µg/mL
Bench top stability, RE % (mean vs nominal) ([2]; 0.6 μg/mL): 11.8%
Bench top stability, Mean concentration ([2]; 40 μg/mL): 38.7 µg/mL
Bench top stability, RE % (mean vs nominal) ([2]; 40 μg/mL): −3.4%
Stock solution stability, RE % (to New) of old stock peak area ([3]; 1 Month Interval): 10.3%
Stock solution stability, RE % (to New) of old stock peak area ([3]; 2 Month Interval, underivatized): 2.2%
Stock solution stability, RE % (to New) of old stock peak area ([3]; 2 Week Interval): −8.6%
Stock solution stability, RE % (to New) of old stock peak area ([3]; 3 Month Interval, underivatized): 1.6%
Stock solution stability, RE % (to New) of old stock peak area ([3]; ~3.5 Month Interval, underivatized): −2.2%
Time stock solutions are stable ([3]; stock solution in acetonitrile/water stored in a refrigerator at approximately 4° C.): at least 3.5 months
Structure (SMILES): CCC(C)(C)C(=O)[O-].[Na+] [Sodium 2,2-Dimethylbutyrate]
Freeze/thaw cycle stability, concentration found (replicate) ([1]; QC-Low, nominal 0.60 μg/mL): 0.615 µg/mL and 0.593 µg/mL and 0.633 µg/mL
